# Laboratory results taken from patent publication US11274111B2, “Arginase inhibitors and methods of use” (Merck Sharp & Dohme Corp., priority 2018, dated 2022).
# pIC50: −log10 of the molar value. Where a name gives a salt, the structure may show the parent alone.
# Molecular target: T1, Arginase (Homo sapiens, UniProt P05089)
# T1 construct: Arginase protein was recombinantly expressed in Escherichia coli
# T1 sequence (P05089 1-322): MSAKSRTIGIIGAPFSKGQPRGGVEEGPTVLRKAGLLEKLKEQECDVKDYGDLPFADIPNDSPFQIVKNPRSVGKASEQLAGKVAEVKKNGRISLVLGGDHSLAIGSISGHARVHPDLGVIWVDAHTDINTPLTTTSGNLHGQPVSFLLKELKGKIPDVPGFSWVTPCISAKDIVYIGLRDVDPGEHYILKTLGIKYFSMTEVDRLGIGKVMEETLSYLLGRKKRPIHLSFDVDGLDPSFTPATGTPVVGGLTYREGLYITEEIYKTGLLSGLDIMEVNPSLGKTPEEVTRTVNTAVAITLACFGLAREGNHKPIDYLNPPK
# Experiment: Arginase Thioornithine Generating Assay (TOGA)
# Format: biochemical
# Details: Top Dose 10000 nM; read-out: Percent Inhibition at Top Dose
# Method: Arginase Thioornithine Generating Assay (TOGA)
# Compounds were serially diluted in ten 3-fold steps in DMSO starting from 10 mM DMSO stocks. Compound dilutions or DMSO alone were then dispensed from the dilution plate into a Greiner black 384-well assay plate (catalog #781086) using an Echo 555 acoustic liquid handler (Labcyte).
# Arginase protein was recombinantly expressed in Escherichia coli. Purified protein was then diluted in assay buffer (50 mM Tris pH 7.5, 50 mM NaCl, 1 mM manganese chloride, 0.05% bovine serum albumin to obtain a final Arginase concentration of 1.88 nM. Arginase solution (20 μL) or buffer alone (20 μL) were dispensed to wells of the assay plate using a BioRAPTR liquid dispenser (Beckman Coulter). Assay plates containing compound and arginase enzyme were incubated at room temperature for 30 minutes. Afterwards, 5 μL of 2.5 mM thioarginine (Cayman Chemicals) in assay buffer were added to each well of the assay plate using a BioRAPTR liquid dispenser. Plates were incubated at room temperature for 60 minutes and reactions were quenched by addition of 15 μL of 200 uM 7-Diethylamine-3-(4-maleimidophenyl)-4-methylcoumarin (Sigma Chemical) in 70% ethanol. Plates were briefly shaken to mix and the fluorescence was measured in an Spectramax plate reader (Molecular Devices) with a 410 nm excitation wavelength and an 490 nm emission wavelength.
# Potencies were calculated by […] to the four parameter logistic IC50 equation.
row,inhibition at 10 µM [%],SMILES
1,99,"CC(=O)N1C[C@@H]2CC(N)(C(=O)O)C(CCCB(O)O)[C@@H]2C1 (mixture of isomers) [Example 13a, rac-(3aR,6aR)-2-acetyl-5-amino-4-(3-boronopropyl)octahydrocyclopenta[c]pyrrole-5-carboxylic acid]"
2,97.2,"CN1CC[C@@H]2[C@H]1C[C@@H](CCCB(O)O)C2(N)C(=O)O (relative stereo) [Example 32, rel-(3aR,5R,6aR)-4-amino-5-(3-boronopropyl)-1-methyloctahydrocyclopenta[b]pyrrole-4-carboxylic acid]"
3,93,"NC1(C(=O)O)C(CCCB(O)O)C[C@H]2C[C@H]21 (relative stereo) [Example 36a, rel-(1R,5R)-2-amino-3-(3-boronopropyl)bicyclo[3.1.0]hexane-2-carboxylic acid]"
4,67.2,"N=C(N)N1C[C@@H]2C[C@@](N)(C(=O)O)[C@@H](CCCB(O)O)[C@@H]2C1 (single isomer, unassigned) [Example 11a]"
5,90.6,"NC(=O)N1CC2CC(N)(C(=O)O)C(CCCB(O)O)C2C1 (single isomer, unassigned) [Example 17a, 5-amino-4-(3-boronopropyl)-2-carbamoyloctahydrocyclopenta[c]pyrrole-5-carboxylic acid]"
6,100,"NC1(C(=O)O)CC2CN(S(N)(=O)=O)CC2C1CCCB(O)O (single isomer, unassigned) [Example 18a, 5-amino-4-(3-boronopropyl)-2-sulfamoyloctahydrocyclopenta[c]pyrrole-5-carboxylic acid]"
7,86.5,"N[C@@]1(C(=O)O)C[C@H]2C(=O)NC[C@H]2[C@@H]1CCCB(O)O (single isomer, unassigned) [Example 23a]"
8,38.8,"N[C@@]1(C(=O)O)C[C@H]2CNC(=O)[C@H]2[C@@H]1CCCB(O)O (single isomer, unassigned) [Example 23b]"
9,97.9,"NCC(=O)N1C[C@@H]2CC(N)(C(=O)O)C(CCCB(O)O)[C@@H]2C1 (stereo in doubt) [Example 16, 5-amino-2-(2-aminoacetyl)-4-(3-boronopropyl)octahydrocyclopenta[c]pyrrole-5-carboxylic acid]"
10,99.8,"N[C@@]1(C(=O)O)C[C@H]2CN(Cc3ccc(F)cc3)C[C@H]2[C@@H]1CCCB(O)O [Example 3, (3aR,4S,5S,6aR)-5-amino-4-(3-boronopropyl)-2-(4-fluorobenzyl)octahydrocyclopenta[c]pyrrole-5-carboxylic acid]"
11,97.4,"C[C@H](N)C(=O)N1C[C@@H]2C[C@@](N)(C(=O)O)[C@@H](CCCB(O)O)[C@@H]2C1 [Example 4, (3aR,4S,5S,6aR)-2-(L-alanyl)-5-amino-4-(3-boronopropyl)octahydrocyclopenta[c]pyrrole-5-carboxylic acid]"
12,95.1,"NCC(=O)N1C[C@@H]2C[C@@](N)(C(=O)O)[C@@H](CCCB(O)O)[C@@H]2C1 [Example 5, (3aR,4S,5S,6aR)-5-amino-4-(3-boronopropyl)-2-glycyloctahydrocyclopenta[c]pyrrole-5-carboxylic acid]"
13,94.2,"N[C@@H](CO)C(=O)N1C[C@@H]2C[C@@](N)(C(=O)O)[C@@H](CCCB(O)O)[C@@H]2C1 [Example 6, (3aR,4S,5S,6aR)-2-(L-seryl)-5-amino-4-(3-boronopropyl)octahydrocyclopenta[c]pyrrole-5-carboxylic acid]"
14,72.8,"CC(=O)N1C[C@@H]2C[C@@](N)(C(=O)O)[C@@H](CCCB(O)O)[C@@H]2C1 [Example 7, (3aR,4S,5S,6aR)-2-acetyl-5-amino-4-(3-boronopropyl)octahydrocyclopenta[c]pyrrole-5-carboxylic acid]"
15,74.8,"CC(C)N1C[C@@H]2C[C@@](N)(C(=O)O)[C@@H](CCCB(O)O)[C@@H]2C1 [Example 8, (3aR,4S,5S,6aR)-5-amino-4-(3-boronopropyl)-2-isopropyloctahydrocyclopenta[c]pyrrole-5-carboxylic acid]"
16,98,"NCCN1C[C@@H]2C[C@@](N)(C(=O)O)[C@@H](CCCB(O)O)[C@@H]2C1 [Example 9, (3aR,4S,5S,6aR)-5-amino-2-(2-aminoethyl)-4-(3-boronopropyl)octahydrocyclopenta[c]pyrrole-5-carboxylic acid]"
17,55.9,"N[C@@]1(C(=O)O)C[C@H]2CN(CC(F)(F)F)C[C@H]2[C@@H]1CCCB(O)O [Example 10, (3aR,4S,5S,6aR)-5-amino-4-(3-boronopropyl)-2-(2,2,2-trifluoroethyl)octahydrocyclopenta[c]pyrrole-5-carboxylic acid]"
18,85.3,"CCN1C[C@@H]2C[C@@](N)(C(=O)O)[C@@H](CCCB(O)O)[C@@H]2C1 [Example 12, (3aR,4S,5S,6aR)-5-amino-4-(3-boronopropyl)-2-ethyloctahydrocyclopenta[c]pyrrole-5-carboxylic acid]"
19,88.6,"NC(=O)CN1CC2CC(N)(C(=O)O)C(CCCB(O)O)C2C1 (stereo not shown) [Example 15, 5-amino-2-(2-amino-2-oxoethyl)-4-(3-boronopropyl)octahydrocyclopenta[c]pyrrole-5-carboxylic acid]"
20,93.9,"CN[C@@]1(C(=O)O)C[C@H]2CNC[C@H]2[C@@H]1CCCB(O)O [Example 22, (3aR,4S,5S,6aR)-4-(3-boronopropyl)-5-(methylamino)octahydrocyclopenta[c]pyrrole-5-carboxylic acid]"

row,SMILES,inhibition at 10 µM [%]
1,"NC1(C(=O)O)C(CCCB(O)O)C[C@H]2CNC[C@H]21 (mixture of isomers) [Example 28, rac-(3aS,6aR)-4-amino-5-(3-boronopropyl)octahydrocyclopenta[c]pyrrole-4-carboxylic acid]",90.4
2,"NC1(C(=O)O)CC2(CNC2)CC1CCCB(O)O (single isomer, unassigned) [Example 35c, 6-amino-7-(3-boronopropyl)-2-azaspiro[3.4]octane-6-carboxylic acid]",82.3
3,"N[C@@]1(C(=O)O)C[C@H]2CNC[C@H]2[C@@H]1CCCB(O)O [Example 1e, (3aR,4S,5S,6aR)-5-amino-4-(3-boronopropyl)octahydrocyclopenta[c]pyrrole-5-carboxylic acid]",98.9

# Same assay, conditions: Top Dose 16000 nM; read-out: Percent Inhibition at Top Dose
row,inhibition at 16 µM [%],SMILES
1,82.7,"CN(C)CC(=O)N1C[C@@H]2CC(N)(C(=O)O)C(CCCB(O)O)[C@@H]2C1 (stereo in doubt) [Example 19, 5-amino-4-(3-boronopropyl)-2-(2-(dimethylamino)acetyl)octahydrocyclopenta[c]pyrrole-5-carboxylic acid]"
2,82.6,"CN1C[C@@H]2C[C@@](N)(C(=O)O)[C@@H](CCCB(O)O)[C@@H]2C1 [Example 2, (3aR,4S,5S,6aR)-5-amino-4-(3-boronopropyl)-2-methyloctahydrocyclopenta[c]pyrrole-5-carboxylic acid]"

row,SMILES,inhibition at 16 µM [%]
1,"N[C@@]1(C(=O)O)C[C@H]2CNC[C@H]2[C@@H]1CCCB(O)O [Example 1f, (3aR,4S,5S,6aR)-5-amino-4-(3-boronopropyl)octahydrocyclopenta[c]pyrrole-5-carboxylic acid]",87.8

# Same assay, conditions: Top Dose 100000 nM; read-out: Percent Inhibition at Top Dose
row,SMILES,inhibition at 100 µM [%]
1,"NC1(C(=O)O)C[C@H]2CNC[C@H]2C1CCCB(O)O (relative stereo) [Example 1, (3aR,6aR-rel-)-5-amino-4-(3-boronopropyl)octahydrocyclopenta[c]pyrrole-5-carboxylic acid]",99.4
2,N[C@@]1(C(=O)O)C[C@H]2CNC[C@H]2[C@@H]1CCCB(O)O [Example 1a],104
3,"NC1(C(=O)O)C2CNC(C2)C1CCCB(O)O (stereo not shown) [Example 24, 5-amino-6-(3-boronopropyl)-2-azabicyclo[2.2.1]heptane-5-carboxylic acid]",95.9

# Same assay, conditions: read-out: Percent Inhibition at Top Dose, Top Dose 10000 nM
row,SMILES,inhibition at 10 µM [%]
1,"NC1(C(=O)O)C(CCCB(O)O)C[C@H]2NCC[C@H]21 (mixture of isomers) [Example 20f, (3aR,6aR)-4-amino-5-(3-boronopropyl)octahydrocyclopenta[b]pyrrole-4-carboxylic acid]",99.2
2,"N[C@]1(C(=O)O)[C@H](CCCB(O)O)C[C@H]2NCC[C@H]21 [Example 20b, (3aR,4R,5R,6aR)-4-amino-5-(3-boronopropyl)octahydrocyclopenta[b]pyrrole-4-carboxylic acid]",101
3,"C[C@H](N)C(=O)N1CCCC12CCC(N)(C(=O)O)C(CCCB(O)O)C2 (stereo partly drawn) [Example 26, 8-amino-1-((S)-2-aminopropanoyl)-7-(3-boronopropyl)-1-azaspiro[4.5]decane-8-carboxylic acid hydrochloride]",45.2

# Same assay, conditions: recombinant arginase 1.88 nM, thioarginine substrate
row,pIC50,SMILES
1,7.08,"CN1C[C@@H]2C[C@@](N)(C(=O)O)[C@@H](CCCB(O)O)[C@@H]2C1 [Example 2, (3aR,4S,5S,6aR)-5-amino-4-(3-boronopropyl)-2-methyloctahydrocyclopenta[c]pyrrole-5-carboxylic acid]"
2,6.97,"C[C@H](N)C(=O)N1C[C@@H]2C[C@@](N)(C(=O)O)[C@@H](CCCB(O)O)[C@@H]2C1 [Example 4, (3aR,4S,5S,6aR)-2-(L-alanyl)-5-amino-4-(3-boronopropyl)octahydrocyclopenta[c]pyrrole-5-carboxylic acid]"
3,6.80,"NCC(=O)N1C[C@@H]2C[C@@](N)(C(=O)O)[C@@H](CCCB(O)O)[C@@H]2C1 [Example 5, (3aR,4S,5S,6aR)-5-amino-4-(3-boronopropyl)-2-glycyloctahydrocyclopenta[c]pyrrole-5-carboxylic acid]"
4,6.75,"N[C@@H](CO)C(=O)N1C[C@@H]2C[C@@](N)(C(=O)O)[C@@H](CCCB(O)O)[C@@H]2C1 [Example 6, (3aR,4S,5S,6aR)-2-(L-seryl)-5-amino-4-(3-boronopropyl)octahydrocyclopenta[c]pyrrole-5-carboxylic acid]"
5,5.28,"N[C@@]1(C(=O)O)C[C@H]2CN(CC(F)(F)F)C[C@H]2[C@@H]1CCCB(O)O [Example 10, (3aR,4S,5S,6aR)-5-amino-4-(3-boronopropyl)-2-(2,2,2-trifluoroethyl)octahydrocyclopenta[c]pyrrole-5-carboxylic acid]"
